In patent publication US6211215A, “Heterocyclic compounds, their production and use” (Takeda Chemical Industries, Ltd., priority 1996, dated 2001):

What was measured:
[1] = tested on: human mammary cancer cell line; assay: Selective in vitro inhibition of breast cancer cell growth (panel of cell lines, Test Example 6); assay type: cell-based; details: Table 6 cell lines
Protocol: (§1) 100 μl (containing 2,000 cells) of a cell suspension of various human breast cancer cell lines shown in [Table 6] was seeded in each well of the 96-well microtiter plates. The cells were incubated at 37° C. in a 5% carbon dioxide gas incubator. Next day, 100 μl of a 2 fold serial dilution of a compound solution was added to each well. The cultures were incubated for 3 days. The solution containing the compound was removed and the cells were washed with water. To the cells was added a 0.4% (V/W) dye SRB (dissolved in 1% acetic acid) solution to fix and stain the cell protein. The dye solution was removed and the fixed and stained cell protein was washed. The protein-bound dye was extracted with 200 μl of 10 mM Tris buffer. The optical density of the extracted dye was determined at the wavelength of 540 nm to estimate the quantity of the cells in terms of the protein quantity. Designating the protein quantity in the control to which no compound solution was added as 100%, the proportion of the residual protein quantity in each treated group was calculated, and IC50, which was the concentration of the compound required to inhibit the residual protein quantity to 50% the quantity of the control, was calculated.

T-47D = assay: Selective in vitro inhibition of breast cancer cell growth; assay type: cell-based; details: Homo sapiens, T47D, 72 h; Mammary cancer T-47D; 3 days; SRB; read-out: IC50, inhibition of cell proliferation
Protocol: as §1

MRC5 = assay: as above; assay type: cell-based; details: Homo sapiens, 72 h; Normal MRC5; 3 days; SRB; read-out: IC50, inhibition of cell proliferation
Protocol: as §1

HSC-1 = assay: as above; assay type: cell-based; details: Homo sapiens, 72 h; Epidermal cancer HSC-1; 3 days; SRB; read-out: IC50, inhibition of cell proliferation
Protocol: as §1

WiDr = assay: as above; assay type: cell-based; details: Homo sapiens, 72 h; Large intestinal cancer WiDr; 3 days; SRB; read-out: IC50, inhibition of cell proliferation
Protocol: as §1

SKBR3 = assay: as above; assay type: cell-based; details: Homo sapiens, SK-BR-3, 72 h; Mammary cancer SKBR3; 3 days; SRB; read-out: IC50, inhibition of cell proliferation
Protocol: as §1

ASPC-1 = assay: as above; assay type: cell-based; details: Homo sapiens, ASPC1, 72 h; Pancreatic cancer ASPC-1; 3 days; SRB; read-out: IC50, inhibition of cell proliferation
Protocol: as §1

BT-20 = assay: as above; assay type: cell-based; details: Homo sapiens, 72 h; Mammary cancer BT-20; 3 days; SRB; read-out: IC50, inhibition of cell proliferation
Protocol: as §1

MDA-MB-468 = assay: as above; assay type: cell-based; details: Homo sapiens, 72 h; Mammary cancer MDA-MB-468; 3 days; SRB; read-out: IC50, inhibition of cell proliferation
Protocol: as §1

BT-474 = assay: as above; assay type: cell-based; details: Homo sapiens, 72 h; Mammary cancer BT-474; 3 days; SRB; read-out: IC50, inhibition of cell proliferation
Protocol: as §1

MDA-MB-453 = assay: as above; assay type: cell-based; details: Homo sapiens, 72 h; Mammary cancer MDA-MB-453; 3 days; SRB; read-out: IC50, inhibition of cell proliferation
Protocol: as §1

[2] = Body weights of mice during the in vivo tumor experiments; set-up: species or system Balb/C strain athymic nude mice
Protocol: 5,000,000 cells of human breast cancer cell line, MDA-MB-453, were suspended in a gelmatrix solution. The suspension was subcutaneously implanted at the breast in 7-week-old female Balb/C strain athymic nude mice (Friedman R. et al., Proceedings of the National Academy of Sciences of the U.S.A. Vol. 87, pp.6698-6702, 1990). Twelve days after the implantation, the diameters of tumors were determined. For the experiment were used 5 mice per group with similar tumor size. […] On the day when the dosing was ended, the diameters of tumors were measured. Tumor volume was calculated by the following formula: volume of tumor=longest diameter×shortest diameter×shortest diameter×1/2. […] The body weights of mice administered with Compound 8 of the present invention were measured during the experiment to observe no decrease.
5,000,000 cells of human breast cancer cell line, MDA-MB-453, were suspended in a gelmatrix solution. […] Twelve days after the implantation, the diameters of tumors were determined. […] On the day when the dosing was ended, the diameters of tumors were measured. Tumor volume was calculated by the following formula: volume of tumor=longest diameter×shortest diameter×shortest diameter×1/2. […] The body weights of mice administered with compounds of the present invention were measured during the experiment to observe no decrease. […]

## C(=C\c1nc(COc2ccc(CCCn3ccnc3)cc2)co1)/c1ccccc1 [Compound 8, 4-[4-[3-(1-imidazolyl)propyl]phenoxymethyl]-2-[(E)-2-phenylethenyl]oxazole]
[1]
  Selective inhibition of cell growth: inhibit specifically the cell growth of human mammary cancer cell line
T-47D
  IC50: 570 nM
MRC5
  IC50: 15000 nM
HSC-1
  IC50: 2100 nM
WiDr
  IC50: 2100 nM
SKBR3
  IC50: 1000 nM
ASPC-1
  IC50: 2500 nM
BT-20
  IC50: 520 nM
MDA-MB-468
  IC50: 520 nM
BT-474
  IC50: 290 nM
MDA-MB-453
  IC50: 250 nM
[2]; Test Example 8, MDA-MB-453-bearing mice
  Body weight change: no decrease
[2]; Test Example 11, LNCaP-bearing mice, oral 30 mg/kg twice daily 21 days
  Body weight change: no decrease
